Marks after values point to notes of the source that are not given here. Where no end group is shown, it is not given here.
What was measured:
[1] = tested on: collagen induced arthritis (CIA) in DBA/1 mice; assay: Collagen-induced mouse arthritis (CIA) model; assay type: in vivo; details: for Joint swelling / Left and right paw swelling / Clinical score: CIA DBA/1 mice; for Clinical score: maximum score 16
[2] = tested on: Uterine cancer tumor cells; assay: MTT proliferation inhibition, uterine cancer cells; assay type: cell-based, human; parameters: concentration or dose not given beside the values; details: 48 h
Procedure: (§1) The activity of mPEG-HM-1 to inhibit the growth of various tumor cells was examined by MTT assay. The tumor cells were cultured to a concentration of 90% or more in a 37° C., 5% CO2 incubator and collected by trypsinization. The cells were resuspended in the culture medium and counted under a microscope to adjust the cell concentration to 2×10^4 cells/mL, the cell suspension was inoculated into a 96-well plate at 100 μL/well and incubated overnight at 37° C. in a 5% CO2 incubator. mPEG-HM-1 was diluted with the culture solution to each predetermined concentration. Docetaxel is diluted to the final concentration with the culture medium. After the cells were fully attached, each dilution was added to a 96-well plate (100 μL/well). The mPEG-HM-1 dilution was added as a drug-administered group, and docetaxel was added as a positive control group, and a culture solution without any drug was used as a negative control group. Incubate for 48 h at 37° C. in a 5% CO2 incubator. 5 mg/mL of MTT was added to a 96-well plate at 20 μL per well, and incubation was continued for 4 hours. The medium was aspirated, dissolved in 150 μL of DMSO per well, and gently mixed by shaking for 10 min. The absorbance was measured at a measurement wavelength of 570 nm and a reference wavelength of 630 nm using a microplate reader, and the rate of growth inhibition (proliferation inhibition, PI) was calculated. The formula is as follows: PI (%)=1−administration group/negative group
(§2) The test was repeated 3 times independently, and the results obtained by the test were expressed as mean±SD, and the test results are shown in Table 15 to Table 18.

[3] = tested on: adjuvant arthritis (AA) SD rats; assay: Adjuvant arthritis (AA) rat model; assay type: in vivo; details: for Joint swelling / Left and right paw swelling / Clinical score: AA SD rats; for Clinical score: maximum score 16
mouse spleen lymphocytes = assay: ConA-stimulated mouse spleen lymphocyte proliferation (MTT); assay type: cell-based; details: ConA 5 μg/mL, 48 h
Procedure: Tris-NH4Cl was used to break the red blood cells, and the cells were allowed to stand in an ice water bath for 4 min, centrifuged (1000 rpm×5 min), the supernatant was discarded, and the cells were washed twice with sterile PBS. Finally, cells were suspended in RPMI 1640 medium (5 mL) supplemented with 10% calf serum, counted, adjusted to a cell concentration of 5×10^6/mL, and cultured in a 96-well culture plate The test group consisted of blank control group, concanavalin A (ConA) group, dexamethasone (Dex) group (0.02 mg/mL) and mPEG-HM-1 group. […] The cells were cultured in a 37° C. cell culture chamber for 48 h. After the completion of the culture, 20 μL of MTT was added to each well, and the culture was continued for 4 h. Finally, all the solutions in each well were discarded, 100 μL of DMSO was added to each well, and the mixture was shaken and detected by a microplate reader OD value at 570 nm, 5 parallels per hole.

Hemangioma tumor cells = assay: MTT proliferation inhibition, hemangioma cells; assay type: cell-based, human; parameters: concentration or dose not given beside the values; details: 48 h
Procedure: as §1, §2

[4] = tested on: Bladder Cancer tumor cells; assay: MTT proliferation inhibition, bladder cancer cells; assay type: cell-based, human; parameters: concentration or dose not given beside the values; details: 48 h
Procedure: as §1, §2

[5] = tested on: corneal neovascularization in BALB/c mice; assay: Alkali-burn corneal neovascularization in BALB/c mice (CD31 microvessel density); assay type: in vivo, mouse; details: for Inhibition rate: corneal microvessel density vs control; for Inhibition rate / MVD: day 14 after alkali burn, intravitreal once a day for 1 week; for MVD: microvessel density (CD31) of cornea
Source text: (1) Preparation of corneal neovascularization model induced by alkali burn in BALB/c mice: mice were randomly grouped and labeled as mPEG-HM-1 experimental group and control group, 5 […] in each group, respectively, was given mPEG-HM-1 and saline by Intravitreal injection after alkali burn, once a day for 1 week. The inflammatory reaction and neovascularization of the cornea were observed under slit lamp microscope at 1 d, 7 d, and 14 d after alkali burn. On the 14th day after alkali burn, the corneal neovascularization was recorded under the slit lamp microscope in the anterior segment of the eye. All the mice were euthanized by cervical dislocation and the eyeballs were removed, washed with saline to rid of blood, and was fixed in 4% paraformaldehyde for 1.5 h, dehydrated in PBS containing 30% sucrose overnight, embedded in OCT frozen section embedding agent, stored in −80° C. refrigerator, frozen section 8 μm, and underwent immunocytochemical detection of CD31 expression. (2) Quantitative measurement of corneal tissue microvessel density: Microvessel density (MVD) is an indicator for evaluating angiogenesis. Vascular endothelial cells were labeled with anti-CD31 antibody by immunohistochemistry, and the number of microvessels per unit area was counted to measure the degree of neovascularization. Standards for counting microvessels: Microscopically, the endothelial cells or cell clusters that are clearly demarcated from adjacent tissues in the corneal tissue and stained brown or brown are counted in the neovascularization. The number of new blood vessels in the whole section was counted under a 10×20 microscope. After the corneal tissue was photographed, the entire corneal tissue area was calculated by image processing software Image J, and the neovascular density of the whole section was determined. The test was repeated 3 times independently. The results obtained by the test were expressed as mean±SD, and a statistical T test was performed. *P<0.05 was a significant difference, and **P<0.01 was a very significant difference.

[6] = tested on: retinal neovascular clusters in OIR C57/B16 mice; assay: Retinal blood vessels in OIR mice; assay type: in vivo, mouse; details: for Neovascular clusters area: retina evaluated on day 17; for Inhibition rate: neovascular clusters area vs control, day 17
Source text: Establishment of the OIR model: Exposure of young mouse and their mothers to 75% hyperoxic environment from day 7 to day 12 after birth of C57/B16 mice caused rapid disappearance of capillaries in the central retina. Upon returning to the indoor air on the 12th day, the retinal blood vessels, upon exposing to hyperoxia, rapidly disappeared, causing extensive abnormal neovascularization, and the central portion of the retina remained largely avascular for a long time. After the blood vessels disappeared completely, on the 13th day, physiological saline (negative control group), mPEG-SC-HM-1, mPEG2-NHS-HM-1, mPEG-ALD10k-HM-1, and mPEG-bALD-HM-1, were administered by intravitreal injection and retinal vessels were evaluated on day 17 (to label unclosed vessels, […] of Texas Red-labeled tomato lectin was injected into the left ventricle and circulated for 5 min).

[7] = 10 mg/kg subcutaneous from day 30 of modeling
[8] = 10 mg/kg subcutaneous once every three days
[9] = 20 mg/kg subcutaneous from day 30 of modeling
[10] = 20 mg/kg subcutaneous once every three days
[11] = 40 mg/kg subcutaneous from day 30 of modeling
[12] = 40 mg/kg subcutaneous once every three days
[13] = 80 mg/kg subcutaneous from day 30 of modeling
[14] = 80 mg/kg subcutaneous once every three days

| Substance | rate of growth inhibition [2] [%] | A570 nm/A630 nm (mouse spleen lymphocytes; 10 μg/mL) | Inhibition Rate of spleen lymphocyte proliferation (mouse spleen lymphocytes; 10 μg/mL) [%] | A570 nm/A630 nm (mouse spleen lymphocytes; 20 μg/mL) | Inhibition Rate of spleen lymphocyte proliferation (mouse spleen lymphocytes; 20 μg/mL) [%] | rate of growth inhibition (Hemangioma tumor cells) [%] | rate of growth inhibition [4] [%] | Inhibition rate [5] [%] | MVD [5] | A570 nm/A630 nm (mouse spleen lymphocytes; 40 μg/mL) | Inhibition Rate of spleen lymphocyte proliferation (mouse spleen lymphocytes; 40 μg/mL) [%] | A570 nm/A630 nm (mouse spleen lymphocytes; 80 μg/mL) | Inhibition Rate of spleen lymphocyte proliferation (mouse spleen lymphocytes; 80 μg/mL) [%] | further results |
| --- | --- | --- | --- | --- | --- | --- | --- | --- | --- | --- | --- | --- | --- | --- |
| mPEG-ALD5k-Arg-Gly-Ala-Asp-Arg-Ala-Gly-Gly-Gly-Gly-Arg-Gly-Asp ({mPEG‑ALD 5 kDa}-RGADRAGGGGRGD) [mPEG-ALD5k-HM-1] | 65.99 ± 17.72 | 0.5448 ± 0.1072 | 20.68 | 0.4779 ± 0.1178 | 30.42 | 43.89 ± 14.14 | 35.93 ± 10.29 | 45.09 | 36.64 ± 3.909* |  |  |  |  | Joint swelling [1, 7]: 0.74 ± 0.14 mm; Left and right paw swelling [1, 7]: 0.72 ± 0.15 mm; Clinical score [1, 7]: 8.93 ± 1.27; Joint swelling [3, 8]: 0.72 ± 0.17 mm; Left and right paw swelling [3, 8]: 3.92 ± 0.67 mm; Clinical score [3, 8]: 5.91 ± 1.09; A570 nm/A630 nm (mouse spleen lymphocytes; 5 μg/mL): 0.6241 ± 0.0917; Inhibition Rate of spleen lymphocyte proliferation (mouse spleen lymphocytes; 5 μg/mL): 9.14%; Neovascular clusters area ([6]; 25 μg intravitreal injection on day 13): 0.108 ± 0.006 mm^2; Inhibition rate ([6]; 25 μg intravitreal): 50.98%** |
| mPEG-ALD10k-Arg-Gly-Ala-Asp-Arg-Ala-Gly-Gly-Gly-Gly-Arg-Gly-Asp ({mPEG‑ALD 10 kDa}-RGADRAGGGGRGD) [mPEG-ALD10k-HM-1] | 90.79 ± 22.19 | 0.6116 ± 0.1046 | 10.96 | 0.5352 ± 0.1022 | 22.08 | 60.25 ± 14.33 | 52.68 ± 13.12 | 53.83 | 30.81 ± 5.465** | 0.4651 ± 0.1086 | 32.29 |  |  | Joint swelling [1, 9]: 0.73 ± 0.15 mm; Left and right paw swelling [1, 9]: 0.70 ± 0.14 mm; Clinical score [1, 9]: 8.65 ± 1.33; limbs score (in words) ([1]; CIA mice, subcutaneous, once every three days, vs model control group): significantly lower than that of the model control group; Joint swelling [3, 10]: 0.68 ± 0.15 mm; Left and right paw swelling [3, 10]: 3.72 ± 0.54 mm; Clinical score [3, 10]: 5.39 ± 1.10; in vivo immune protection effect on adjuvant arthritis model (in words) ([3]; AA rats, subcutaneous, once every three days, vs model group): has the most significant effect; inhibition rate of corneal neovascularization ([5]; BALB/c mice, alkali burn, intravitreal injection once a day for 1 week): 53.83%; Neovascular clusters area ([6]; 50 μg intravitreal injection on day 13): 0.085 ± 0.007 mm^2; Inhibition rate ([6]; 50 μg intravitreal): 61.75%**; inhibition rate of retinal neovascular clusters ([6]; OIR mice, 50 μg intravitreal injection, evaluated day 17): 61.75% |
| mPEG-ALD20k-Arg-Gly-Ala-Asp-Arg-Ala-Gly-Gly-Gly-Gly-Arg-Gly-Asp ({mPEG‑ALD 20 kDa}-RGADRAGGGGRGD) [mPEG-ALD20k-HM-1] | 89.37 ± 23.47 |  |  | 0.6035 ± 0.0989 | 12.14 | 53.30 ± 16.06 | 45.29 ± 11.63 | 48.04 | 34.67 ± 6.953** | 0.4876 ± 0.1259 | 29.02 | 0.4406 ± 0.1074 | 35.85 | Joint swelling [1, 11]: 0.72 ± 0.16 mm; Left and right paw swelling [1, 11]: 0.74 ± 0.13 mm; Clinical score [1, 11]: 8.66 ± 1.38; Joint swelling [3, 12]: 0.76 ± 0.21 mm; Left and right paw swelling [3, 12]: 3.77 ± 0.62 mm; Clinical score [3, 12]: 5.67 ± 1.08; Neovascular clusters area ([6]; 100 μg intravitreal injection on day 13): 0.095 ± 0.009 mm^2; Inhibition rate ([6]; 100 μg intravitreal): 57.03%** |
| mPEG-ALD40k-Arg-Gly-Ala-Asp-Arg-Ala-Gly-Gly-Gly-Gly-Arg-Gly-Asp ({mPEG‑ALD 40 kDa}-RGADRAGGGGRGD) [mPEG-ALD40k-HM-1] | 82.59 ± 21.37 |  |  |  |  | 50.67 ± 14.02 | 43.22 ± 10.31 | 46.11 | 35.96 ± 6.862** | 0.6176 ± 0.0998 | 10.09 | 0.5040 ± 0.1239 | 26.63 | Joint swelling [1, 13]: 0.77 ± 0.14 mm; Left and right paw swelling [1, 13]: 0.79 ± 0.12 mm; Clinical score [1, 13]: 8.97 ± 1.42; Joint swelling [3, 14]: 0.73 ± 0.17 mm; Left and right paw swelling [3, 14]: 3.80 ± 0.65 mm; Clinical score [3, 14]: 5.76 ± 1.03; A570 nm/A630 nm (mouse spleen lymphocytes; 160 μg/mL): 0.4770 ± 0.1057; Inhibition Rate of spleen lymphocyte proliferation (mouse spleen lymphocytes; 160 μg/mL): 30.56%; Neovascular clusters area ([6]; 200 μg intravitreal injection on day 13): 0.106 ± 0.010 mm^2; Inhibition rate ([6]; 200 μg intravitreal): 52.02%** |

Source: patent US10869931B2, “Polyethylene glycol-modified angiogenesis inhibitor HM-1 and application thereof” (NANJING ANJI BIOLOGICAL TECHNOLOGY CO.,LTD, priority 2016, dated 2020)
